Holding throughout (format): in vivo
Data set [1] deals with mouse. The data set can be described thus: PAF (Platelet Activating Factor) lethality assay. The following applies: for PAF lethality survival (%): Dose 50 mg/kg. The text has this: (§1) The compounds of formulae (I) and (II) of this invention can be shown to inhibit lipoxygenase according to various testing methods. Such methods include the following: RPC (Rat Peritoneal Cavity resident cells) assay according to methods described in Jap. J. Inflammation 7:145-150 (1987), "Synthesis of leukotrienes by peritoneal macrophages"; PAF (Platelet Activating Factor) lethality assay according to methods described in Prostaglandisis 30(4):545-551 (1985); and y-RFE (yeast induced Rat Foot Edema) assay according to methods described in Biochem. Pharmacol. 36:547 (1987).
In the PAF lethality assay, the compound of Example 5, as shown in the Table above, gave a high (69%) survival percentage. The term "survival percentage" herein means the inhibitory efficacy to shock death of the mouse through lipoxygenase metabolites activated by dosing with PAF.

Data set [2] has as its system male ICR mice. Put plainly: Acute toxicity after oral administration. The note with it: 7 hours after oral administration at 600 mg/kg to male ICR mice. As for the experimental part:
Acute toxicity of the compound of Example 5 was investigated 7 hours after oral administration at 600 mg/kg to male ICR mice (Charles River Japan Inc., 5 weeks old, avg. body weight of 28 g).

Data set [3] deals with rat foot. The data set can be described thus: y-RFE (yeast induced Rat Foot Edema) assay. The following applies: Dose 60 mg/kg; rat foot edema induced by yeast suspension.
Source text: as §1
Furthermore, in the y-RFE assay, the compound of Example 5, as shown in the Table above, gave a high (69%) edema inhibitory percentage. The term "edema inhibitory percentage" herein means the inhibitory efficacy to the swelling of inflammatory edema of the rat foot induced by the injection of yeast suspension.

Consider `Cn1c(=O)[nH]c2c(c1=O)Nc1ccccc1S2` [Example 2, 1,5-Dihydro-3-methyl-2H-pyrimido[4,5-b][1,4]benzothiazine-2,4(3H)-dione], for which the “PAF lethality survival (%)” value in data set [1] was found to be 30%.
On the same count and under the same terms, the value for `O=c1[nH]c2c(c(=O)[nH]1)Nc1ccccc1S2` [Example 1, 1,5-Dihydro-2H-pyrimido[4,5-b][1,4]benzothiazine-2,4(3H)-dione] was 56%.
On to `Cn1c(=O)nc2sc3ccccc3nc-2c1=O` [Example 5, 3-Methyl-2H-pyrimido[4,5-b][1,4]benzothiazine-2,4(3H)-dione], for which, in data set [2], the Acute toxicity entry is “did not show any acute toxic symptoms”. Also, the “PAF lethality survival (%)” value in data set [1] turned out to be 69%. Besides, the ED50 in data set [1] (Platelet, read-out: ED₅₀ value in the PAF lethality assay) amounted to 51 mg/kg. Besides, in data set [3], the “y-RFE edema inhibitory (%)” value is recorded as 69%.

The values are drawn from patent publication EP0497609B1, “Pyrimido-benzothiazine derivatives for the treatment of inflammation, allergy and cardiovascular disease” (PFIZER INC., priority 1991, dated 1992).
